From patent US20090042964A1, “AMINO-5-[SUBSTITUTED-4-(DIFLUOROMETHOXY)PHENYL]-5-PHENYLIMIDAZOLONE COMPOUNDS AS BETA-SECRETASE INHIBITORS” (Wyeth, priority 2007, published 2009)
pIC50: −log10 of the molar value.

Target: human BACE1 (Homo sapiens, UniProt P56817)
Assay: Fluorescent kinetic assay, evaluation of BACE1 binding affinity of test compounds
Format: biochemical
Settings: 10 nM human BACE1, 25 μM substrate WABC-6, pH 4.5, room temperature; read-out: BACE1 IC50
How it was run: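 Kinetic fluorescence assay: enzyme added last to inhibitor and substrate mix, reading started immediately; substrate at 100 μM working dilution (25 μL in 100 μL total). Buffer 66.7 mM Na-acetate pH 4.5 with 0.0667% CHAPS for inhibitor and enzyme dilutions; enzyme stock quantified at 280 nm.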

Sequence of human BACE1 (P56817 46-501): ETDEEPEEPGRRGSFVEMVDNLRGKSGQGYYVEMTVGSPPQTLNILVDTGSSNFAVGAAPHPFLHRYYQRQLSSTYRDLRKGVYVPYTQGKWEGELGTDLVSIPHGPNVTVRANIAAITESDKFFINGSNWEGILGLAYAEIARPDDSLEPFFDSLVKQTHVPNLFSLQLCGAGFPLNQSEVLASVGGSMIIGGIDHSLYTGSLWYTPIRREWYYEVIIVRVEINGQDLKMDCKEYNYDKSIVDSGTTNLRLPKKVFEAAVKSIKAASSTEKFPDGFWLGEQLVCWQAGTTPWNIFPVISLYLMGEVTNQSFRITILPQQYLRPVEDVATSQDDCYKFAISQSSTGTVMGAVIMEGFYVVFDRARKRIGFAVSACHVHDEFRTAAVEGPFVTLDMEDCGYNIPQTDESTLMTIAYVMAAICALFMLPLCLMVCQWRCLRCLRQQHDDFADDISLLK

| Compound | pIC50 |
| --- | --- |
| CN1C(=O)C(c2cccc(Br)c2)(c2ccc(OC(F)F)c(C3CC3)c2)N=C1N (centres unmarked) [Example 164, 2-Amino-5-(3-bromo-phenyl)-5-(3-cyclopropyl-4-difluoromethoxy-phenyl)-3-methyl-3,5-dihydro-imidazol-4-one] | > 7.00 |
| CN1C(=O)C(c2cccc(C#CCCCO)c2)(c2ccc(OC(F)F)c(C3CC3)c2)N=C1N (centres unmarked) [Example 188, 2-amino-4-(3-cyclopropyl-4-(difluoromethoxy)phenyl)-4-(3-(5-hydroxypent-1-ynyl)phenyl)-1-methyl-1H-imidazol-5(4H)-one] | > 7.00 |
| CN1C(=O)C(c2cccc(C#CCCCF)c2)(c2ccc(OC(F)F)c(C3CC3)c2)N=C1N (centres unmarked) [Example 191, 2-amino-4-(3-cyclopropyl-4-(difluoromethoxy)phenyl)-4-(3-(5-fluoropent-1-ynyl)phenyl)-1-methyl-1H-imidazol-5(4H)-one] | > 7.00 |
| CN1C(=O)C(c2ccc(OC(F)F)c(C3CC3)c2)(c2ccc(OC(F)F)c(C3CC3)c2)N=C1N [Example 194, 2-amino-4,4-bis(3-cyclopropyl-4-(difluoromethoxy)phenyl)-1-methyl-1H-imidazol-5(4H)-one] | 6.00 to 6.96 |
| Cc1cc(C2(c3ccc(F)c(OC(C)C)c3)N=C(N)N(C)C2=O)ccc1OC(F)F (centres unmarked) [Example 195, 2-amino-5-[4-(difluoromethoxy)-3-methylphenyl]-5-(4-fluoro-3-isopropoxyphenyl)-3-methyl-3,5-dihydro-4H-imidazol-4-one] | 6.00 to 6.96 |
| Cc1cc(C2(c3cccc(C#CCF)c3)N=C(N)N(C)C2=O)ccc1OC(F)F (centres unmarked) [Example 196, 2-amino-5-[4-(difluoromethoxy)-3-methylphenyl]-5-[3-(3-fluoroprop-1-yn-1-yl)phenyl]-3-methyl-3,5-dihydro-4H-imidazol-4-one] | > 7.00 |
| Cc1cc([C@@]2(c3cccc(C#CCF)c3)N=C(N)N(C)C2=O)ccc1OC(F)F [Example 200, (5R)-2-amino-5-[4-(difluoromethoxy)-3-methylphenyl]-5-[3-(3-fluoroprop-1-yn-1-yl)phenyl]-3-methyl-3,5-dihydro-4H-imidazol-4-one] | < 6.00 |
| Cc1cc([C@]2(c3cccc(C#CCF)c3)N=C(N)N(C)C2=O)ccc1OC(F)F [Example 201, (5S)-2-amino-5-[4-(difluoromethoxy)-3-methylphenyl]-5-[3-(3-fluoroprop-1-yn-1-yl)phenyl]-3-methyl-3,5-dihydro-4H-imidazol-4-one] | > 7.00 |
| Cc1cc(C2(c3cccc(C#CCCF)c3)N=C(N)N(C)C2=O)ccc1OC(F)F (centres unmarked) [Example 202, 2-amino-5-[4-(difluoromethoxy)-3-methylphenyl]-5-[3-(4-fluorobut-1-yn-1-yl)phenyl]-3-methyl-3,5-dihydro-4H-imidazol-4-one] | > 7.00 |
| Cc1cc(C2(c3ccc(F)c(C#CCCF)c3)N=C(N)N(C)C2=O)ccc1OC(F)F (centres unmarked) [Example 203, 2-amino-5-[4-(difluoromethoxy)-3-methylphenyl]-5-[4-fluoro-3-(4-fluorobut-1-yn-1-yl)phenyl]-3-methyl-3,5-dihydro-4H-imidazol-4-one] | > 7.00 |
| Cc1cc([C@@]2(c3cccc(C#CCCF)c3)N=C(N)N(C)C2=O)ccc1OC(F)F [Example 204, (5R)-2-amino-5-[4-(difluoromethoxy)-3-methylphenyl]-5-[3-(4-fluorobut-1-yn-1-yl)phenyl]-3-methyl-3,5-dihydro-4H-imidazol-4-one] | < 6.00 |
| Cc1cc([C@]2(c3ccc(F)c(C#CCCF)c3)N=C(N)N(C)C2=O)ccc1OC(F)F [Example 205, (5R)-2-amino-5-[4-(difluoromethoxy)-3-methylphenyl]-5-[4-fluoro-3-(4-fluorobut-1-yn-1-yl)phenyl]-3-methyl-3,5-dihydro-4H-imidazol-4-one] | > 7.00 |
| Cc1cc([C@]2(c3cccc(C#CCCF)c3)N=C(N)N(C)C2=O)ccc1OC(F)F [Example 206, (5S)-2-amino-5-[4-(difluoromethoxy)-3-methylphenyl]-5-[3-(4-fluorobut-1-yn-1-yl)phenyl]-3-methyl-3,5-dihydro-4H-imidazol-4-one] | > 7.00 |
| Cc1cc([C@@]2(c3ccc(F)c(C#CCCF)c3)N=C(N)N(C)C2=O)ccc1OC(F)F [Example 207, (5S)-2-amino-5-[4-(difluoromethoxy)-3-methylphenyl]-5-[4-fluoro-3-(4-fluorobut-1-yn-1-yl)phenyl]-3-methyl-3,5-dihydro-4H-imidazol-4-one] | 6.00 to 6.96 |
| CN1C(=O)C(c2ccc(F)c(C#CCCF)c2)(c2ccc(OC(F)F)c(C3CC3)c2)N=C1N (centres unmarked) [Example 208, 2-amino-5-[3-cyclopropyl-4-(difluoromethoxy)phenyl]-5-[4-fluoro-3-(4-fluorobut-1-yn-1-yl)phenyl]-3-methyl-3,5-dihydro-4H-imidazol-4-one] | > 7.00 |
| CN1C(=O)C(c2cccc(C#CCF)c2)(c2ccc(OC(F)F)c(C3CC3)c2)N=C1N (centres unmarked) [Example 209, 2-amino-5-[3-cyclopropyl-4-(difluoromethoxy)phenyl]-5-[3-(3-fluoroprop-1-yn-1-yl)phenyl]-3-methyl-3,5-dihydro-4H-imidazol-4-one] | > 7.00 |
| CN1C(=O)C(c2ccc(F)c(C#CCF)c2)(c2ccc(OC(F)F)c(C3CC3)c2)N=C1N (centres unmarked) [Example 210, 2-amino-5-[3-cyclopropyl-4-(difluoromethoxy)phenyl]-5-[4-fluoro-3-(3-fluoroprop-1-yn-1-yl)phenyl]-3-methyl-3,5-dihydro-4H-imidazol-4-one] | > 7.00 |
| CN1C(=O)C(c2cccc(C#CCCF)c2)(c2ccc(OC(F)F)c(C3CC3)c2)N=C1N (centres unmarked) [Example 211, 2-amino-5-[3-cyclopropyl-4-(difluoromethoxy)phenyl]-5-[3-(4-fluorobut-1-yn-1-yl)phenyl]-3-methyl-3,5-dihydro-4H-imidazol-4-one] | > 7.00 |
| CN1C(=O)[C@@](c2cccc(C#CCF)c2)(c2ccc(OC(F)F)c(C3CC3)c2)N=C1N [Example 212, (5R)-2-amino-5-[3-cyclopropyl-4-(difluoromethoxy)phenyl]-5-[3-(3-fluoroprop-1-yn-1-yl)phenyl]-3-methyl-3,5-dihydro-4H-imidazol-4-one] | < 6.00 |
| CN1C(=O)[C@](c2cccc(C#CCF)c2)(c2ccc(OC(F)F)c(C3CC3)c2)N=C1N [Example 213, (5S)-2-amino-5-[3-cyclopropyl-4-(difluoromethoxy)phenyl]-5-[3-(3-fluoroprop-1-yn-1-yl)phenyl]-3-methyl-3,5-dihydro-4H-imidazol-4-one] | > 7.00 |
| CN1C(=O)[C@@](c2ccc(F)c(C#CCCF)c2)(c2ccc(OC(F)F)c(C3CC3)c2)N=C1N [Example 214, (5S)-2-amino-5-[3-cyclopropyl-4-(difluoromethoxy)phenyl]-5-[4-fluoro-3-(4-fluorobut-1-yn-1-yl)phenyl]-3-methyl-3,5-dihydro-4H-imidazol-4-one] | < 6.00 |
| CN1C(=O)[C@](c2ccc(F)c(C#CCCF)c2)(c2ccc(OC(F)F)c(C3CC3)c2)N=C1N [Example 215, (5R)-2-amino-5-[3-cyclopropyl-4-(difluoromethoxy)phenyl]-5-[4-fluoro-3-(4-fluorobut-1-yn-1-yl)phenyl]-3-methyl-3,5-dihydro-4H-imidazol-4-one] | > 7.00 |

Tested on: not given
Assay: not given
Settings: not given

| Compound | melting point [°C] |
| --- | --- |
| CN1C(=O)C(c2cccc(Br)c2)(c2ccc(OC(F)F)c(C3CC3)c2)N=C1N (centres unmarked) [Example 164, 2-Amino-5-(3-bromo-phenyl)-5-(3-cyclopropyl-4-difluoromethoxy-phenyl)-3-methyl-3,5-dihydro-imidazol-4-one] | 85 to 87 |
